From ChEMBL document CHEMBL4480377, “Synthesis and biological evaluation of zinc chelating compounds as metallo-β-lactamase inhibitors” (Medchemcomm, 2019)

How the values were obtained:
[1] = target: Metallo-beta-lactamase type 2 (Klebsiella pneumoniae) (UniProt C7C422); experiment: Inhibition of NDM1 in Pseudomonas aeruginosa assessed as potentiation of meropenem-induced antibacterial activity by measuring meropenem MIC at 31 uM after 20 hrs by broth microdilution assay (meropenem alone = 32 to 64 mg/L)
Metallo-beta-lactamase type 2 (Klebsiella pneumoniae), sequence (C7C422 whole entry): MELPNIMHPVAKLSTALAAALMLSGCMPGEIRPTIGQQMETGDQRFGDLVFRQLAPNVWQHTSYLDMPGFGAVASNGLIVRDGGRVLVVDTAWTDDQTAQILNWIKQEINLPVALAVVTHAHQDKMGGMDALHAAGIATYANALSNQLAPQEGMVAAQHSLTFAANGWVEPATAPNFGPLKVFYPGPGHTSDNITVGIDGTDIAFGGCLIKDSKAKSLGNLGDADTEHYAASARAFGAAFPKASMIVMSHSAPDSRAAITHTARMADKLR

[2] = target: Metallo-beta-lactamase type 2 (Klebsiella pneumoniae) (UniProt C7C422); experiment: Inhibition of NDM1 in Pseudomonas aeruginosa assessed as potentiation of meropenem-induced antibacterial activity by measuring meropenem MIC at 125 uM after 20 hrs by broth microdilution assay (meropenem alone = 32 to 64 mg/L)
[3] = target: Metallo-beta-lactamase type 2 (Klebsiella pneumoniae) (UniProt C7C422); experiment: Inhibition of NDM1 in Pseudomonas aeruginosa assessed as potentiation of meropenem-induced antibacterial activity by measuring meropenem MIC at 16 uM after 20 hrs by broth microdilution assay (meropenem alone = 32 to 64 mg/L)
[4] = target: Beta-lactamase VIM-2 (Pseudomonas aeruginosa) (UniProt Q9K2N0); experiment: Inhibition of beta-lactamase VIM-2 in Pseudomonas aeruginosa assessed as potentiation of meropenem-induced antibacterial activity by measuring meropenem MIC at 125 uM after 20 hrs by broth microdilution assay (meropenem alone = 32 to 64 mg/L)
[5] = target: Beta-lactamase VIM-2 (Pseudomonas aeruginosa) (UniProt Q9K2N0); experiment: Inhibition of beta-lactamase VIM-2 in Pseudomonas aeruginosa assessed as potentiation of meropenem-induced antibacterial activity by measuring meropenem MIC at 16 uM after 20 hrs by broth microdilution assay (meropenem alone = 32 to 64 mg/L)
[6] = target: Beta-lactamase VIM-2 (Pseudomonas aeruginosa) (UniProt Q9K2N0); experiment: Inhibition of beta-lactamase VIM-2 in Pseudomonas aeruginosa assessed as potentiation of meropenem-induced antibacterial activity by measuring meropenem MIC at 31 uM after 20 hrs by broth microdilution assay (meropenem alone = 32 to 64 mg/L)
COLO357 = experiment: Cytotoxicity against human Colo-357 cells after 72 hrs by MTT assay; format: cell-based; conditions: COLO357, 72 h
[7] = Binding affinity to zinc assessed as dissociation constant for compound-metal complex
MDA-MB-231 = experiment: Cytotoxicity against human MDA-MB-231 cells after 72 hrs by MTT assay; format: cell-based; conditions: MDA-MB-231, 72 h
[8] = Cytotoxicity against human MiaPaCa cells after 72 hrs by MTT assay; format: cell-based; conditions: MIA PaCa-2, 72 h
[9] = target: Beta-lactamase VIM-2 (Pseudomonas aeruginosa) (UniProt Q9K2N0); experiment: Inhibition of beta-lactamase VIM-2 in Pseudomonas aeruginosa assessed as potentiation of meropenem-induced antibacterial activity by measuring meropenem MIC at 50 uM after 20 hrs by broth microdilution assay (meropenem alone = 32 to 64 mg/L)
[10] = target: Metallo-beta-lactamase type 2 (Klebsiella pneumoniae) (UniProt C7C422); experiment: Inhibition of NDM1 in Pseudomonas aeruginosa assessed as potentiation of meropenem-induced antibacterial activity by measuring meropenem MIC at 50 uM after 20 hrs by broth microdilution assay (meropenem alone = 32 to 64 mg/L)
HepG2 = experiment: Cytotoxicity against human HepG2 cells after 72 hrs by MTT assay; format: cell-based; conditions: HepG2, 72 h

SMILES	MIC [1] [µg/mL]	MIC [2] [µg/mL]	MIC [3] [µg/mL]	MIC [4] [µg/mL]	MIC [5] [µg/mL]	MIC [6] [µg/mL]	IC50 (COLO357) [µM]	pKd [7]	IC50 (MDA-MB-231) [µM]	IC50 [8] [µM]	MIC [9] [µg/mL]	MIC [10] [µg/mL]	IC50 (HepG2) [µM]
COC(=O)[C@H](C)NC(=O)[C@H](C)NC(=O)Cc1ccc(NC(=O)CN(CCN(Cc2ccccn2)Cc2ccccn2)Cc2ccccn2)cc1	0.125	0.125	8	1	32	1							
COC(=O)CNC(=O)CNC(=O)Cn1cc(CN(Cc2ccccn2)Cc2ccccn2)nn1		2		4			137	8.9	168	176			
CC(=O)NCCCC[C@H](NC(=O)Cn1cc(CN(Cc2ccccn2)Cc2ccccn2)nn1)C(=O)NCB(O)O	8	0.5	16	2	32	16	112	8.9	101	66			
COC(=O)[C@@H](C)NC(=O)[C@H](CCCCNC(=O)Cn1cc(CN(Cc2ccccn2)Cc2ccccn2)nn1)NC(C)=O											16	8	
COC(=O)[C@@H](C)NC(=O)[C@@H](C)NC(=O)CN(Cc1ccccn1)Cc1ccccn1		8 to 16		16			90	7.6	184	98			
COC(=O)[C@@H](C)NC(=O)[C@H](CCCCNC(C)=O)NC(=O)Cn1cc(CN(Cc2ccccn2)Cc2ccccn2)nn1											32	8	
CN(CCN(Cc1ccccn1)Cc1ccccn1)CC(=O)N(C)C[C@H](O)[C@@H](O)[C@H](O)[C@H](O)CO	0.25		32		32	1							118
CC(=O)N[C@@H](CCCCNC(=O)Cn1cc(CN(Cc2ccccn2)Cc2ccccn2)nn1)C(=O)NCB(O)O	8	0.5	16	2	32	32	82	8.9	128	119			
C[C@@H](N)C(=O)N[C@H](C)C(=O)NCCc1ccc(NC(=O)CN(CCN(Cc2ccccn2)Cc2ccccn2)Cc2ccccn2)cc1.Cl	0.125	0.125	8	2	32	2	6.8	12.3	4.9	4.8			13.6
C[C@@H](N)C(=O)N[C@H](C)C(=O)NCCc1ccc(-n2cc(CN(Cc3ccccn3)Cc3ccccn3)nn2)cc1											4	4	
Cl.NCC(=O)NCC(=O)NCCc1ccc(NC(=O)CN(CCN(Cc2ccccn2)Cc2ccccn2)Cc2ccccn2)cc1							24	12.3	15	21			
C[C@@H](N)C(=O)N[C@H](C)C(=O)NCCc1ccc(NC(=O)CN(Cc2ccccn2)Cc2ccccn2)cc1.Cl		8		16			21	7.6	127	118			
COC(=O)CNC(=O)[C@H](CCCCNC(C)=O)NC(=O)Cn1cc(CN(Cc2ccccn2)Cc2ccccn2)nn1											32	8	
COC(=O)[C@@H](CCCCn1cc(CN(Cc2ccccn2)Cc2ccccn2)nn1)NC(=O)[C@@H](C)NC(C)=O		1		4			101	8.9	131	128			
COC(=O)[C@@H](C)NC(=O)[C@@H](C)NC(=O)Cn1cc(CN(Cc2ccccn2)Cc2ccccn2)nn1	16	< 0.5	32	2	32	64	133	8.9	152	116			
COC(=O)[C@H](C)NC(=O)[C@H](C)NC(=O)Cn1cc(CN(Cc2ccccn2)Cc2ccccn2)nn1	8	2	16	8	32	16	96	8.9	157	105			
C[C@H](N)C(=O)N[C@@H](C)C(=O)NCCc1ccc(NC(=O)CN(CCN(Cc2ccccn2)Cc2ccccn2)Cc2ccccn2)cc1.Cl	0.125	0.125	16	2	32	4	6.8	12.3	5.1	5.5			
COC(=O)CNC(=O)[C@H](CCCCNC(=O)Cn1cc(CN(Cc2ccccn2)Cc2ccccn2)nn1)NC(C)=O											16	4	
COC(=O)[C@@H](C)NC(=O)[C@@H](C)NC(=O)Cc1ccc(-n2cc(CN(Cc3ccccn3)Cc3ccccn3)nn2)cc1							105	8.9	125	119	8	4	
COC(=O)[C@@H](C)NC(=O)[C@@H](C)NC(=O)CCC(=O)NCCc1ccc(NC(=O)CN(Cc2ccccn2)Cc2ccccn2)cc1		8 to 16		32			152	7.6	141	45			
NCC(=O)NCC(=O)NCCc1ccc(-n2cc(CN(Cc3ccccn3)Cc3ccccn3)nn2)cc1											8	4	
COC(=O)[C@@H](CCCCNC(=O)Cn1cc(CN(Cc2ccccn2)Cc2ccccn2)nn1)NC(=O)[C@@H](C)N							114	8.9	127	106			
COC(=O)CNC(=O)CNC(=O)Cc1ccc(NC(=O)CN(CCN(Cc2ccccn2)Cc2ccccn2)Cc2ccccn2)cc1	2	0.125	16	1	32	2	12	12.3	7.8	12			
c1ccc(CNCCN(Cc2ccccn2)Cc2ccccn2)nc1	0.125	< 0.25	8	0.5	32	1							
COC(=O)[C@@H](C)NC(=O)[C@@H](C)NC(=O)CN(C)CCN(Cc1ccccn1)Cc1ccccn1	0.125		16		32	1 to 2	4.3	11.8	4.5	5.1	1	0.125	6.83
CCOC(=O)Cc1ccc(-n2cc(CN(Cc3ccccn3)Cc3ccccn3)nn2)cc1											16	4	
COC(=O)[C@@H](C)NC(=O)[C@@H](C)NC(=O)Cc1ccc(NC(=O)CN(CCN(Cc2ccccn2)Cc2ccccn2)Cc2ccccn2)cc1	0.125	0.125	16	1	32	4	5.4	12.3	4.1	5.9			
OC1O[C@H](Cn2cc(CN(CCN(Cc3ccccn3)Cc3ccccn3)Cc3ccccn3)nn2)[C@H](O)[C@H](O)[C@H]1O (some centres undefined)	0.125		8		32	2							1.7
COC(=O)CNC(=O)CNC(=O)Cc1ccc(-n2cc(CN(Cc3ccccn3)Cc3ccccn3)nn2)cc1											8	4	
